How the values were obtained:
[1] = system: Mast cell; assay: Inhibition of A23187-induced histamine release in porcine peritoneal mast cells at 20 uM; assay type: functional; conditions: Sus scrofa
[2] = system: Mast cell; assay: Inhibition of anti-IgE-induced histamine release in porcine lung mast cells at 20 uM; assay type: functional; conditions: Sus scrofa
[3] = system: Mast cell; assay: Inhibition of concanavalin A-induced histamine release in rat peritoneal mast cells; assay type: functional, cell-based
[4] = system: Mast cell; assay: Inhibition of A23187-induced histamine release in rat peritoneal mast cells; assay type: functional, cell-based
[5] = system: Mus musculus; assay: Inhibition of IgE-induced PCA reaction in albino Swiss mouse at 3 mg/kg administered intradermally; assay type: functional; set-up: Activity: scale not given: the % may be the effect or the level left; conditions: for inhibition in vivo at 3 mg/kg: Mus musculus, albino Swiss
[6] = system: Mast cell; assay: Inhibition of compound 48/80-induced histamine release in rat peritoneal mast cells; assay type: functional, cell-based
[7] = system: Mast cell; assay: Inhibition of vancomycin-induced histamine release in rat peritoneal mast cells; assay type: functional, cell-based
[8] = system: Mus musculus; assay: Inhibition of IgE-induced PCA reaction in intradermally dosed albino Swiss mouse; assay type: functional, organism-based

IC50 [3] [µM]	IC50 [4] [µM]	IC50 [6] [µM]	IC50 [7] [µM]	SMILES	inhibition at 20 µM [1] [%]	inhibition at 20 µM [2] [%]	inhibition in vivo at 3 mg/kg [5] [%]	inhibition [8]	Activity [5] [%]
1.6	8.06	1.49		CN([C@H]1CCc2ccccc2C1)[C@H]1CC(=O)c2ccccc21	40	86	73		
				CN(C1CCc2ccccc2C1)C1CC(=O)c2ccccc21 (centres undefined)			83		
13.1	9.48	3.03		CN([C@@H]1CCc2ccccc2C1)[C@@H]1CC(=O)c2ccccc21	22	89	77		
16.9	4.08	1.51	4.47	CN([C@@H]1CCc2ccccc2C1)[C@H]1CC(=O)c2ccccc21	31	53	111	Dose-dependent effect	
				O=C([O-])c1cc(=O)c2c(OCC(O)COc3cccc4oc(C(=O)[O-])cc(=O)c34)cccc2o1.[Na+].[Na+] [CROMOLYN SODIUM]					73
1.6	6.97	2.18	12.6	CN([C@H]1CCc2ccccc2C1)[C@@H]1CC(=O)c2ccccc21	48	81	68		

— ChEMBL document CHEMBL1667851, “Synthesis and pharmacological evaluation of the individual stereoisomers of 3-[methyl(1,2,3,4-tetrahydro-2-naphthalenyl)amino]-1-indanone, a potent mast cell stabilising agent” (Bioorg Med Chem Lett, 2011)
